{"source": "patent US20250064762A1", "about": "“A SUBSTITUTED AROMATIC DICARBONIC ACID AMIDE AS AN INHIBITOR OF THE FERROPTOSIS SUPPRESSOR PROTEIN-1 (FSP1)” (JULIUS-MAXIMILIANS-UNIVERSITÄT WÜRZBURG, priority 2021, published 2025)", "key": {"[1]": {"test_system": "HT1080, Du145 or PC3 cells", "experiment": "Cell viability with CPBA alone, no ferroptosis inducers", "type": "cell-based", "conditions": "16 h", "experimental": "(§1) Cells were seeded onto 96-well plates (5,000 cells per well), and treated with serial dilutions of ferroptosis-inducing compounds (erastin, BSO, RSL3, FIN56) or cytotoxic drugs (staurosporine, nocodazole, tunicamycin, paclitaxel, etoposide, menadione, rotenone, FCCP, carboplatin) in the absence or presence of CPBA or iFSP1 (100 μM or 10 μM, respectively; unless stated otherwise) or the DMSO solvent control. Ferroptotic cell death was evaluated by incubating in the absence or presence of liproxstatin-1 (100 nM), ferrostatin-1 (200 nM), or deferoxamine (100 μM). Cell viability was assessed after 16 h using AquaBluer as an indicator of viable cells according to the manufacturer's recommendations (MultiTarget Pharmaceuticals, LLC). Fluorescence (excitation, 540 nm; emission, 590 nm) was analyzed on a Clariostar microplater reader.\nTo study the effect of increasing CPBA concentrations in the absence of ferroptosis inducers on the viability of HT1080, Du145 or PC3 cells. Cells were incubated with the indicated concentrations of CPBA alone or in the presence of ferroptosis inhibitors deferoxamine (DFO, an iron-chelator and ferroptosis inhibitor); ferrostatin (fer, a ferroptosis inhibitor); liproxstatin-1 (lip-1, a ferroptosis inhibitor); or zVAD-FMK (a pan-caspase and apoptosis inhibitor), and cell viability was analyzed after 16 h."}, "[2]": {"test_system": "mouse embryonic fibroblasts (MEFs)", "experiment": "FIN-induced ferroptosis in Pgp-wildtype or heterozygous Pgp-inactivated MEFs", "type": "cell-based", "experimental": "as §1\nThe above experiment was repeated in mouse embryonic fibroblasts (MEFs) generated from Pgp-wildtype (Pgp^fl/fl) or heterozygous Pgp-inactivated mouse embryos (Pgp^fl/D34N)."}}}
{"smiles": "O=C(Nc1ccccc1C(=O)O)c1ccc(Oc2ccc(C(=O)Nc3ccccc3C(=O)O)cc2)cc1", "note": "[CPBA, 2-[[4-[4-[(2-carboxyphenyl)carbamoyl]phenoxy]benzoyl]amino]-benzoic acid]", "values": [{"measurement": "cell death with the compound alone", "setting": "[1]; 400 μM CPBA", "value": "Non-ferroptotic, non-apoptotic cell death is observed"}, {"measurement": "concentrations at which the compound alone is not cytotoxic", "setting": "[1]; no ferroptosis inducers", "value": "up to 200 μM"}, {"measurement": "sensitization to FIN-induced ferroptosis in Pgp^fl/fl and Pgp^fl/D34N cells", "setting": "[2]", "value": "able to sensitize both Pgp^fl/fl and Pgp^fl/D34N cells to FIN-induced ferroptosis"}]}
